# Results from ChEMBL document CHEMBL6109176, “Drug-like Antagonists of P2Y Receptor Subtypes: An Update” (J Med Chem, 2025).
# How the values were obtained:
# P2Y purinoceptor 12 [1] = target: T1, P2Y purinoceptor 12 (Homo sapiens, UniProt Q9H244); assay: Antagonist activity at P2Y12R (unknown origin)
# P2Y purinoceptor 14 = target: T2, P2Y purinoceptor 14 (Homo sapiens, UniProt Q15391); assay: Binding affinity to P2Y14R (unknown origin) expressed in CHO cells assessed as inhibition constant; type: cell-based
# T2 sequence (Q15391 whole entry): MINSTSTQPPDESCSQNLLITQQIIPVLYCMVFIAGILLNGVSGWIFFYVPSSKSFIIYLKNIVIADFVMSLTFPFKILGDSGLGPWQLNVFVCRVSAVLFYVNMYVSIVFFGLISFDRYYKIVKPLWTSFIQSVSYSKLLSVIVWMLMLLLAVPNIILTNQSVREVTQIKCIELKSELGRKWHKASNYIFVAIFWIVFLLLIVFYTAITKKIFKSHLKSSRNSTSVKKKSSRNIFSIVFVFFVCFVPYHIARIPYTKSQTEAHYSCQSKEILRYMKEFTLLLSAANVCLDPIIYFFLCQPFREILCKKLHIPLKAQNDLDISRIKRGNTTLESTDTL
# P2Y purinoceptor 12 [2] = target: T1, P2Y purinoceptor 12; assay: Inhibition of P2Y12R (unknown origin) by HTS assay
# [3] = Antagonist activity at P2Y14R (unknown origin); design: species or system Homo sapiens
# P2Y purinoceptor 2 = P2Y purinoceptor 2 (Homo sapiens, UniProt P41231); assay: Antagonist activity at human P2Y2R stably expressed in 1321N1 cells assessed as UTP-induced Ca2+ accumulation preincubated with compound for 30 mins followed by UTP addition by […]; type: functional, cell-based
# Chain of P2Y purinoceptor 2 (P41231 whole entry): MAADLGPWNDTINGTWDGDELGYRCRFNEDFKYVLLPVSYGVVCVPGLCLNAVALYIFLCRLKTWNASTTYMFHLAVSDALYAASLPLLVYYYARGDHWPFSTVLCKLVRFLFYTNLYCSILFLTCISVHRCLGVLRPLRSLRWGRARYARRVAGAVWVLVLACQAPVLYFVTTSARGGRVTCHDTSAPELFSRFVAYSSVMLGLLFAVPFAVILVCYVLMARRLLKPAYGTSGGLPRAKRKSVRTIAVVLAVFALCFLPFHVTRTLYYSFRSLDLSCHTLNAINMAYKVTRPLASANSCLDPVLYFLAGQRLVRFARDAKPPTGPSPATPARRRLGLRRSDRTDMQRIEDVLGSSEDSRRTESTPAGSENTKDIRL
# P2Y purinoceptor 1 [4] = target: T3, P2Y purinoceptor 1 (Homo sapiens, UniProt P47900); assay: inhibition of P2Y1R (unknown origin)
# T3 sequence (P47900 whole entry): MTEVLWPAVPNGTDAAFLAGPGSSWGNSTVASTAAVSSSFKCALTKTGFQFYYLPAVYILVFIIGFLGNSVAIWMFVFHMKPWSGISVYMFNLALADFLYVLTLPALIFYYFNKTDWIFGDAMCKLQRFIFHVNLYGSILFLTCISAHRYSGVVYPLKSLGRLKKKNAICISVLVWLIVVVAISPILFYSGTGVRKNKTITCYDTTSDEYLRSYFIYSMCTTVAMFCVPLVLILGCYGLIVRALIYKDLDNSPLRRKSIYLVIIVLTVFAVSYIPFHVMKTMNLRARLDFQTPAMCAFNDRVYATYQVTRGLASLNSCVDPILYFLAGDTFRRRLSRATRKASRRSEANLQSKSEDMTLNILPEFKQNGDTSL
# P2Y purinoceptor 1 [5] = target: T3, P2Y purinoceptor 1; assay: Binding affinity yo human P2Y1R extracted from baculovirus infected Sf9 cells assessed as inhibition constant incubated for 30 mins
# P2Y purinoceptor 12 [6] = target: T1, P2Y purinoceptor 12; assay: Binding affinity to human P2Y12R expressed in CHO cells assessed as dissociation constant SPR assay
# [7] = Inhibition of platelet aggregation in human platelet rich plasma preincubated for 5 mins followed by aggregation inducer addition and measured after 5 mins by light transmission aggregation method; type: functional
# T1 sequence (Q9H244 whole entry): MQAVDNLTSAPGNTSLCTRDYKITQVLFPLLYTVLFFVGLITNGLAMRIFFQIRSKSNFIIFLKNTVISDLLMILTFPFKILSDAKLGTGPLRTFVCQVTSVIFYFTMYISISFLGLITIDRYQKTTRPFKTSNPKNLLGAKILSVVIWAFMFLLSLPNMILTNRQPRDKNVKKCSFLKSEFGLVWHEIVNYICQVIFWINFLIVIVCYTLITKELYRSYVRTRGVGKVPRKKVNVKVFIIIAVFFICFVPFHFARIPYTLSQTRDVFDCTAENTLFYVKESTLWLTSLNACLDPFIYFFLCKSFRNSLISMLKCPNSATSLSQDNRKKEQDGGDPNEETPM
smiles,measurement,setting,value
CNc1cc2[nH]c(=O)n(-c3ccc(NC(=O)NS(=O)(=O)c4ccc(Cl)s4)cc3)c(=O)c2cc1F [ELINOGREL],IC50,P2Y purinoceptor 12 [1],< 10000 nM
N=C1C=CC2=C(c3ccc(C(=O)NCCCCCCn4cc(CCCCN5CCC(c6ccc(-c7cc(C(=O)O)cc8cc(-c9ccc(C(F)(F)F)cc9)ccc78)cc6)CC5)nn4)cc3C(=O)O)C3C=CC(N)=C(S(=O)(=O)O)C3OC2C1S(=O)(=O)O (stereo not drawn),Ki,P2Y purinoceptor 14,0.08 nM
CCOC(=O)N1CCN(C(=O)[C@H](CCC(=O)O)NC(=O)c2cc(OC(C)(C)C(=O)O)c3ccc(C)cc3n2)CC1,IC50,P2Y purinoceptor 12 [2],290 nM
CC(NC(=O)C(C)c1ccc(-c2ccccc2)c(F)c1)C(=O)O (stereo not drawn),IC50,[3],5.12 nM
Cc1cc(O)c(C2=Nc3cc(C(F)(F)F)ccc3SC(c3cccc(O)c3)C2)c(=O)o1 (stereo not drawn),IC50,P2Y purinoceptor 2,10900 nM
Cc1nc(/N=N/c2cc([N+](=O)[O-])ccc2Cl)c(COP(=O)(O)O)c(C=O)c1O,IC50,P2Y purinoceptor 1 [4],1100 nM
Cc1nc(/N=N/c2ccc(Cl)c([N+](=O)[O-])c2)c(COP(=O)(O)O)c(C=O)c1O,IC50,P2Y purinoceptor 1 [4],660 nM
CNc1nc(I)nc2c1ncn2[C@H]1C[C@H](OP(=O)(O)O)[C@]2(COP(=O)(O)O)C[C@H]12,Ki,P2Y purinoceptor 1 [5],0.79 nM
O=C(O)c1cc(-c2ccc(-c3cn([C@@H]4O[C@H](CO)[C@@H](O)[C@H](O)[C@H]4O)nn3)cc2)c2ccc(-c3ccc(C(F)(F)F)cc3)cc2c1,IC50,[3],12.8 nM
O=C(O)c1cc(-c2ccc(C3CCN(CCc4cn([C@@H]5O[C@H](CO)[C@@H](O)[C@H](O)[C@H]5O)nn4)CC3)cc2)c2ccc(-c3ccc(C(F)(F)F)cc3)cc2c1,IC50,[3],2.4 nM
CCOC(=O)N1CCN(C(=O)[C@H](CCC(=O)O)NC(=O)c2cc(OC(C)(C)C(=O)OCC)c3ccc(C)cc3n2)CC1,IC50,P2Y purinoceptor 12 [2],97 nM
CCCCOC(=O)N1CCN(C(=O)[C@H](CP(=O)(O)O)NC(=O)c2cc(N3CC[C@H](OC)C3)nc(-c3ccccc3)n2)CC1 [SELATOGREL],Kd,P2Y purinoceptor 12 [6],1.5 nM
same,IC50,[7],14 nM
